ChEMBL document CHEMBL5705888, “Substrate specificity and inhibitors of LRRK2, a protein kinase mutated in Parkinson's disease” (Biochem J, 2009)

Columns and labels:
[1] = species: Homo sapiens; assay: Inhibition of PHK (unknown origin) at 1 uM incubated for 30 mins in presence of [gamma-33P]ATP by multidrop micro reagent based assay relative to control; values are per cent of control
[2] = biological target: Insulin receptor-related protein (Homo sapiens) (UniProt P14616); assay: Inhibition of IRR (unknown origin) at 1 uM incubated for 30 mins in presence of [gamma-33P]ATP by multidrop micro reagent based assay relative to control
[3] = biological target: T1, Serine/threonine-protein kinase Nek2 (Homo sapiens) (UniProt P51955); assay: Inhibition of NEK2a (unknown origin) at 1 uM incubated for 30 mins in presence of [gamma-33P]ATP by multidrop micro reagent based assay relative to control; values are per cent of control
T1 sequence (whole entry): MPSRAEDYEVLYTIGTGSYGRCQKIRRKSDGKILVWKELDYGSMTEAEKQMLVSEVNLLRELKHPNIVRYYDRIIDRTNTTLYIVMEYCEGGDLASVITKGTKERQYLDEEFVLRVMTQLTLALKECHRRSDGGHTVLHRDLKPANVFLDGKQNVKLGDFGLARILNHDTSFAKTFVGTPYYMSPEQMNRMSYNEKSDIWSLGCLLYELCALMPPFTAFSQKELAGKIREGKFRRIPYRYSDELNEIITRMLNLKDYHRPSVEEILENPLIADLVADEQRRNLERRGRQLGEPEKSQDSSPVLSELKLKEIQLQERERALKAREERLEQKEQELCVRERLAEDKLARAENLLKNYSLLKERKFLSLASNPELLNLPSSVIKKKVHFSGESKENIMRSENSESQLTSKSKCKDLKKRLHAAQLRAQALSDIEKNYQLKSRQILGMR

[4] = biological target: Myosin light chain kinase, smooth muscle (Homo sapiens) (UniProt Q15746); assay: Inhibition of SmMLCK (unknown origin) at 10 uM incubated for 30 mins in presence of [gamma-33P]ATP by multidrop micro reagent based assay relative to control; values are per cent of control
[5] = biological target: Homeodomain-interacting protein kinase 2 (Homo sapiens) (UniProt Q9H2X6); assay: Inhibition of HIPK2 (unknown origin) at 10 uM incubated for 30 mins in presence of [gamma-33P]ATP by multidrop micro reagent based assay relative to control; values are per cent of control
[6] = biological target: Insulin receptor-related protein (Homo sapiens) (UniProt P14616); assay: Inhibition of IRR (unknown origin) at 10 uM incubated for 30 mins in presence of [gamma-33P]ATP by multidrop micro reagent based assay relative to control
[7] = biological target: T2, Serine/threonine-protein kinase STK11 (Homo sapiens) (UniProt Q15831); assay: Inhibition of LKB1 (unknown origin) at 10 uM incubated for 30 mins in presence of [gamma-33P]ATP by multidrop micro reagent based assay relative to control; values are per cent of control
T2 sequence (whole entry): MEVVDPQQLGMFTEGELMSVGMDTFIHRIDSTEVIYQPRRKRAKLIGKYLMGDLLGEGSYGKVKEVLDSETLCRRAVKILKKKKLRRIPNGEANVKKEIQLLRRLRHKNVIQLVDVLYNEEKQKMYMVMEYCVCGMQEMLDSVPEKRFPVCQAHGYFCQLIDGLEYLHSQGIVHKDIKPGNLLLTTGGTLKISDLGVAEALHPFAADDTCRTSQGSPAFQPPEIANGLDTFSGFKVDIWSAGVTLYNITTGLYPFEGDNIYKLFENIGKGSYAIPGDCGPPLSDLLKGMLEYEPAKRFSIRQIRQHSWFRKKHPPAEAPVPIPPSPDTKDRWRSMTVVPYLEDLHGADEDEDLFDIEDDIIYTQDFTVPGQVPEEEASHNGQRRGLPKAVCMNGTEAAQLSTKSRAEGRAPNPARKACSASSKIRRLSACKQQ

[8] = biological target: Receptor tyrosine-protein kinase erbB-4 (Homo sapiens) (UniProt Q15303); assay: Inhibition of HER4 (unknown origin) at 10 uM incubated for 30 mins in presence of [gamma-33P]ATP by multidrop micro reagent based assay relative to control; values are per cent of control
[9] = biological target: T3, Eukaryotic elongation factor 2 kinase (Homo sapiens) (UniProt O00418); assay: Inhibition of EF2K (unknown origin) at 10 uM incubated for 30 mins in presence of [gamma-33P]ATP by multidrop micro reagent based assay relative to control; values are per cent of control
T3 sequence (whole entry): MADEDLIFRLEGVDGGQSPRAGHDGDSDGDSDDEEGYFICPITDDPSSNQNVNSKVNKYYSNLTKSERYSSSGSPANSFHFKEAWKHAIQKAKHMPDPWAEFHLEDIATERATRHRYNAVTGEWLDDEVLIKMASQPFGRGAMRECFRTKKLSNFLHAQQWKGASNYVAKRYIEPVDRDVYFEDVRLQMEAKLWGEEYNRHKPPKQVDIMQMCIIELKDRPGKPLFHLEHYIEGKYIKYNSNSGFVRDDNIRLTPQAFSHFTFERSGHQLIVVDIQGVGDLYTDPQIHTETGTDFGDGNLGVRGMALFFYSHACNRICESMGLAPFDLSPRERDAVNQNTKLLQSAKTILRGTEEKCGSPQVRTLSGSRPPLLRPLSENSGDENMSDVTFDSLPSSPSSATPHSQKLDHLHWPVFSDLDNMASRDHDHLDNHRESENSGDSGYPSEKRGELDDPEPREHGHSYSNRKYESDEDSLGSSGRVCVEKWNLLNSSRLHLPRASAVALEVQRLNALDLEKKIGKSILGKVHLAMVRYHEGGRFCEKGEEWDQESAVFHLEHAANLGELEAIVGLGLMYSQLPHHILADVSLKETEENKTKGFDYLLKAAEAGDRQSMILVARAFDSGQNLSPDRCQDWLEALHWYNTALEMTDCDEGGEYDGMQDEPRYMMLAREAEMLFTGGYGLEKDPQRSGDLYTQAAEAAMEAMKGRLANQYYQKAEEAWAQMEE

Sequence of Insulin receptor-related protein (Homo sapiens) (P14616 27-742 limits assumed): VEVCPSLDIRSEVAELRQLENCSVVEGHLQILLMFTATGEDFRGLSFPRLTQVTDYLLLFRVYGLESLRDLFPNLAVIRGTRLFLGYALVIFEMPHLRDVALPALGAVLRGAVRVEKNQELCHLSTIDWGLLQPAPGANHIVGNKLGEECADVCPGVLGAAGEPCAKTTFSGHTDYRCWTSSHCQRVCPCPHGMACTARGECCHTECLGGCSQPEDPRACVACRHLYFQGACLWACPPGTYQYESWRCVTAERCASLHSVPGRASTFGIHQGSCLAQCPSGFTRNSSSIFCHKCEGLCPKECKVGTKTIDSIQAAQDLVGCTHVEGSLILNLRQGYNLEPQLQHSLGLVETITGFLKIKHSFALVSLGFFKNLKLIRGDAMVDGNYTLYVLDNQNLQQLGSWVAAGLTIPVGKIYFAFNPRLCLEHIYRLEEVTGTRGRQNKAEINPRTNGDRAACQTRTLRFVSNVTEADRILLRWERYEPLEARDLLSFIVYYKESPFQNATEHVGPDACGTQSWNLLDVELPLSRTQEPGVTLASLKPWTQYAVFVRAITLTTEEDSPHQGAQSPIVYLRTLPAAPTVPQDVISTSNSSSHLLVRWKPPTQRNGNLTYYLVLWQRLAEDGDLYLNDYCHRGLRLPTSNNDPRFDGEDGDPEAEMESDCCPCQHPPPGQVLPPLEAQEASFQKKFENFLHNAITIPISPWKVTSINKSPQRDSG
Sequence of Insulin receptor-related protein (Homo sapiens) (P14616 747-1297 limits assumed): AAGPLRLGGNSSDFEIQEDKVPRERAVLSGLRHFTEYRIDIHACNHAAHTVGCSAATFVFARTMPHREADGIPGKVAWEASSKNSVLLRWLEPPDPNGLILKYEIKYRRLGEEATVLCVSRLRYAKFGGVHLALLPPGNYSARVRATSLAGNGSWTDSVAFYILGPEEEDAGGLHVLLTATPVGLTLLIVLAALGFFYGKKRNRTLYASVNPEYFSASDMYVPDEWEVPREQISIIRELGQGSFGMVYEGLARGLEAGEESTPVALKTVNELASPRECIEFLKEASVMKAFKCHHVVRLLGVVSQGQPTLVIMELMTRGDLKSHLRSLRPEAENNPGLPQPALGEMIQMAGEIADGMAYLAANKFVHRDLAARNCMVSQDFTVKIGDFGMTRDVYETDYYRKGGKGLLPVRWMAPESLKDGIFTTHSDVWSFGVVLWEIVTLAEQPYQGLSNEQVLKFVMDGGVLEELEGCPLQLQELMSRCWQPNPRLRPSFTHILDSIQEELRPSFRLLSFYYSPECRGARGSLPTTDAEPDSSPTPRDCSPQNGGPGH
Sequence of Homeodomain-interacting protein kinase 2 (Homo sapiens) (Q9H2X6 whole entry, looked up): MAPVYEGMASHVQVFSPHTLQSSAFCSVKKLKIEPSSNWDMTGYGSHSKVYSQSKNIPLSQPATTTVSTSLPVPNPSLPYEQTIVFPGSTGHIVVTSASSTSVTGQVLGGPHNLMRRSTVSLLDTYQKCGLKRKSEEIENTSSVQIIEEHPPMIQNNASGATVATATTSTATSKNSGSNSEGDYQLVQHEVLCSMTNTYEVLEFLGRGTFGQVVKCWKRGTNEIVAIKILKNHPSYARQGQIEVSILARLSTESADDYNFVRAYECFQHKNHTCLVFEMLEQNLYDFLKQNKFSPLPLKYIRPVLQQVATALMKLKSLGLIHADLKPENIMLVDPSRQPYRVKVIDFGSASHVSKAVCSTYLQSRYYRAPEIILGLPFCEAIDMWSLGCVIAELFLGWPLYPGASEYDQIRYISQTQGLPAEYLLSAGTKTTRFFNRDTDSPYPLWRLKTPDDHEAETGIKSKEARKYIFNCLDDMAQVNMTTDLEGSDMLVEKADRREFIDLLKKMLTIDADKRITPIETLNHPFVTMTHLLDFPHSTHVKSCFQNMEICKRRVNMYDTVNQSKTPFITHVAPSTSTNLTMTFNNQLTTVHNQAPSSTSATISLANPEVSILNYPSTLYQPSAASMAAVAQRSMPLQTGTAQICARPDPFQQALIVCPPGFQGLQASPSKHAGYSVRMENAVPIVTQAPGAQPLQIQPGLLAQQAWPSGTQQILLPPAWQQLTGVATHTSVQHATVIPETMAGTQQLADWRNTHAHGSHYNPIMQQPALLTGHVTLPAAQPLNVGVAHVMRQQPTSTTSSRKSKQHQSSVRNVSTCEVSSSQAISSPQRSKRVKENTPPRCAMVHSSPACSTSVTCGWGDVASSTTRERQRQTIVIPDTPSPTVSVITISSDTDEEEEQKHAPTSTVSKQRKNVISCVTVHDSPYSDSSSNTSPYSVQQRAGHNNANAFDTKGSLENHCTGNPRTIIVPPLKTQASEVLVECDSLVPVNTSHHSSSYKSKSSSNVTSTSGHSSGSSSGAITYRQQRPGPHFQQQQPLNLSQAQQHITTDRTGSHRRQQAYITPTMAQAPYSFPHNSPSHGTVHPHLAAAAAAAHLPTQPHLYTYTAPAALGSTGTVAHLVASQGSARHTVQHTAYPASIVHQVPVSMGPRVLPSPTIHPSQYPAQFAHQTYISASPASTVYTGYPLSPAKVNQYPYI
Sequence of Myosin light chain kinase, smooth muscle (Homo sapiens) (Q15746 whole entry): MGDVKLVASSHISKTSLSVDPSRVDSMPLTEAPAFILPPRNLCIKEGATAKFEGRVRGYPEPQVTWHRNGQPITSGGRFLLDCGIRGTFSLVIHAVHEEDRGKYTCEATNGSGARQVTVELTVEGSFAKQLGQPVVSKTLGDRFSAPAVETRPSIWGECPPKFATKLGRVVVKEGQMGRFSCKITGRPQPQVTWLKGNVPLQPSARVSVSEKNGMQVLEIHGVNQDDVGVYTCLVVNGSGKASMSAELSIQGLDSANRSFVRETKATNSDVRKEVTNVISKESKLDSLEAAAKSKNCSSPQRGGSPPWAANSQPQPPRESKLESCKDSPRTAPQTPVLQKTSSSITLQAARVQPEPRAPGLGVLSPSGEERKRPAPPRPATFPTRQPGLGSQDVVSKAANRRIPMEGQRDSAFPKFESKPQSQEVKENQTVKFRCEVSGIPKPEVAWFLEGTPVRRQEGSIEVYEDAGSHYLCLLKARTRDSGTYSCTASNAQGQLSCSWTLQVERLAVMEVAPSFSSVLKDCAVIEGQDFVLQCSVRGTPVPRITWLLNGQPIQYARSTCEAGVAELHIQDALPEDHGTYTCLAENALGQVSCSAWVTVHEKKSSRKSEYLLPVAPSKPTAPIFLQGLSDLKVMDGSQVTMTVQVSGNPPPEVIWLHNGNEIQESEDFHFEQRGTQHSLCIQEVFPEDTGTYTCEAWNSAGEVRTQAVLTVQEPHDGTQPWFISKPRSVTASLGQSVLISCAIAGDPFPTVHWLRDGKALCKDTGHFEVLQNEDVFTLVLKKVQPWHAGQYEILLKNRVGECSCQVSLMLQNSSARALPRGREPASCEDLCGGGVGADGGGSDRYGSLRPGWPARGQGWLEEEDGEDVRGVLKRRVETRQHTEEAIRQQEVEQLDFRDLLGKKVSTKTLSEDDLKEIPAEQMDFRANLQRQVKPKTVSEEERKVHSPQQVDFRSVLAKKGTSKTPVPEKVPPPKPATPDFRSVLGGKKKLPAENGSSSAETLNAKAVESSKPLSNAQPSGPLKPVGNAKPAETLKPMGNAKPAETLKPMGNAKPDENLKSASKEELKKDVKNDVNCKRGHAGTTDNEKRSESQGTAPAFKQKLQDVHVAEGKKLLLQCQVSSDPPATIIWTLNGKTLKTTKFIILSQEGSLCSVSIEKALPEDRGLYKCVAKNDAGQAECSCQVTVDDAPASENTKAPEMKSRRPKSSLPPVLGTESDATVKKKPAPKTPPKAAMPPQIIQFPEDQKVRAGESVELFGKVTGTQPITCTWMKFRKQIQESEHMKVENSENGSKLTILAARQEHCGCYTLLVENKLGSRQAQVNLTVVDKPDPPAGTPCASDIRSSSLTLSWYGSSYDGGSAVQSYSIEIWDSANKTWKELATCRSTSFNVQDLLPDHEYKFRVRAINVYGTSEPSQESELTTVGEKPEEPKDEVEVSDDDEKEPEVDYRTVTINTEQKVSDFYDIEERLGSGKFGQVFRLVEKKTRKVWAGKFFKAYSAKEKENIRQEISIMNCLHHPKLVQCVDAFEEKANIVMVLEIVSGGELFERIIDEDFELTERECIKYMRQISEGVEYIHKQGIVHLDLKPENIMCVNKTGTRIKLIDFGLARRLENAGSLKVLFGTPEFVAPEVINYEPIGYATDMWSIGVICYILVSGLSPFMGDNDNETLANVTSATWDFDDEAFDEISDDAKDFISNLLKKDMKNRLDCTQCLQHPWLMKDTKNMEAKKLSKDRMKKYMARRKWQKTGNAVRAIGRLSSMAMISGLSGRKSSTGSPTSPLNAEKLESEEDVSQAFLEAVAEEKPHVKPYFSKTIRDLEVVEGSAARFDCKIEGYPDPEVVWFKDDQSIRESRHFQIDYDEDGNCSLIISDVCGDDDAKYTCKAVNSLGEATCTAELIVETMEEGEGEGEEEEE

CC1=C(C(=O)Nc2cc3cn[nH]c3cc2F)C(c2ccc(C(F)(F)F)cc2)CC(=O)N1 (stereo not drawn)
residual activity [1]: 97% | inhibition [2]: 106% | residual activity [3]: 106%

Cc1cncc2cccc(S(=O)(=O)N3CCCNC[C@@H]3C)c12
residual activity [3]: 99%

CCN(CC)CCNC(=O)c1c(C)[nH]c(/C=C2\C(=O)Nc3ccc(F)cc32)c1C
residual activity [1]: 2%

C[C@@H](N)[C@H]1CC[C@H](C(=O)Nc2ccncc2)CC1
residual activity [4]: 70% | residual activity [5]: 104% | inhibition [6]: 91% | residual activity [7]: 52% | residual activity [8]: 69% | residual activity [9]: 81%

O=S(=O)(c1cccc2cnccc12)N1CCCNCC1 [FASUDIL]
residual activity [4]: 66% | residual activity [5]: 127% | inhibition [6]: 86% | residual activity [7]: 33% | residual activity [8]: 129% | residual activity [9]: 120%

CCn1c(-c2nonc2N)nc2cnc(Oc3cccc(NC(=O)c4ccc(OCCN5CCOCC5)cc4)c3)cc21 [GSK-269962A]
inhibition [2]: 61%
